Key:
[1] = test system: glycosylated ORF8 binding to immune monocytes; experiment: Immune cell binding assay: peptide inhibition of glycosylated ORF8 binding to monocytes; type: cell-based; conditions: 50 μM peptide with 5 μM FITC-labeled ORF8; human monocytes; 4 h at 37°C; flow cytometry; Fig. 6C and D
[2] = test system: deglycosylated ORF8 binding to immune monocytes; experiment: Immune cell binding assay: peptide inhibition of deglycosylated ORF8 binding to monocytes; type: cell-based; conditions: 50 μM peptide with 5 μM FITC-labeled deglycosylated ORF8; human monocytes; 4 h at 37°C; flow cytometry; Fig. 6E and F
[3] = test system: human immune monocytes (from PBMC); experiment: Binding of ORF8 protein forms to immune monocytes (flow cytometry); type: cell-based
[4] = after deglycosylation (PNGase F); observation during the experiments

TNERLCVRFE [P3, 10-residue peptide derived from IL17RA (aa89-98) designed against ORF8]
inhibition of glycosylated ORF8 binding to immune cells [1]: no significant inhibitory effect
inhibition of deglycosylated ORF8 binding to immune monocytes [2]: significantly inhibited

deglycosylated ORF8: ORF8 protein treated with PNGase F enzyme overnight
binding to immune cells relative to glycosylated ORF8 ([3]; FITC-labeled ORF8, human monocytes, flow cytometry, Fig. 6A and B): 2 fold

delipidated ORF8: ORF8 protein treated with 0.5% Triton X-100 overnight
binding to human immune cells compared with ORF8 with lipid modifications ([3]; co-incubated with human PBMC cells, lipid removed with 0.5% Triton X-100 overnight, Fig. 4G and H): higher percentage of binding

glycosylated ORF8: recombinant SARS-CoV-2 ORF8 (residues 16–121, MBP/His tag) expressed in 293F cells, glycosylated at N78
binding to immune cells ([3]; FITC-labeled ORF8, 5 μM, human monocytes, flow cytometry, Fig. 6A and B): weak binding
solubility of ORF8 [4]: deteriorated

From publication PMC10434001, “Glycosylated, Lipid-Binding, CDR-Like Domains of SARS-CoV-2 ORF8 Indicate Unique Sites of Immune Regulation” (Microbiology Spectrum, 2023)
